The target in data set [1] is T1, RlmCDs (Streptococcus pneumoniae, UniProt Q97R12).
T1 construct: gene SP_1029; core region residues 1-454; 8xHis-SUMO tag cut by ULP1; E. coli BL21 (Gold)
The data set can be described thus: in-vitro methyltransferase assay, 3H counting on RNA. The format is biochemical. The following applies: labelled compound (3H-SAM); 18-mer rRNA-h35, 3 mM MgCl2, pH 8.0, 37 °C, 2 h.

The target of data set [2] is RlmCDs E443Q (Streptococcus pneumoniae, UniProt Q97R12 1-454, E443Q). The data set can be described thus: crystal structure (2.85 A); SAH (SAM added); only the 5-bp stem modelled, loop not visible; Crystallization: 8 mg/ml protein, protein:SAM:RNA 1:2:1.2, 0.1 M ammonium sulfate, 0.01 M MgCl2, 0.05 M MES, 20% w/v PEG8000, pH 5.6; protein storage buffer 20. The following applies: protein: recombinant; tags: N-terminal 8xHis-SUMO, cleaved with ULP1; hairpin.

Take `C[S+](CC[C@H](N)C(=O)O)C[C@H]1O[C@@H](n2cnc3c(N)ncnc32)[C@H](O)[C@@H]1O` (some centres unmarked) [SAM]: the “in-vitro methyltransferase assay, 3H counting on RNA” value in data set [1] was “both full-length RlmCD and its shorter construct RlmCDs exhibit strong MTase activity”.

Turning to GGCACGUUGAAAAGUGCC (structured_RNA, m5U at position 8 (U747)) [m5U747 rRNA-h35 (18-mer, 23S rRNA helix 35)], the binding result in data set [2] is “binds”.

Values taken from publication PMC5614603, “Structural insights into substrate selectivity of ribosomal RNA methyltransferase RlmCD” (PLoS ONE, 2017).
